Values quoted from earlier work in patent US7820652B2, “Regimen for the administration of rifamycin-class antibiotics” (ActivBiotics Pharma, LLC, priority 2003, dated 2010).

SMILES: CO[C@H]1/C=C/O[C@@]2(C)Oc3c(C)c(O)c4c(=O)c(c5oc6cc(N7CCN(CC(C)C)CC7)cc(O)c6nc-5c4c3C2=O)NC(=O)/C(C)=C\C=C\[C@H](C)[C@H](O)[C@@H](C)[C@@H](O)[C@@H](C)[C@H](OC(C)=O)[C@@H]1C [rifalazil]
- activity against mycobacterium species (mycobacterium species): effective
- efficacy against mycobacterium species (mycobacterium species; once or twice-a-week dose regimen, U.S. Pat. No. 6,316,433): efficacious
- number and severity of adverse reactions (clinical trials, twice-a-week dosing regimen): clear dose-related incidence
- blood cell counts and blood hemoglobin (daily administration): changes in blood cell counts
- adverse reactions (daily dose regimen): severe adverse reactions
- incidence of adverse reactions (once- or twice-a-week dosing regimen): reduced, but did not eliminate
